Measurements taken from US20230151003A1, “COMPOUNDS AND METHODS OF USE” (Exelixis, Inc., priority 2020, published 2023).

Assays:
Assay type in all cases: biochemical
Human MER = molecular target: T1, Human MER (Homo sapiens, UniProt Q12866); assay: Human MER kinase assay (HTRF KinEase); details: Table 2 Biological Activities, ATP at Km (40 μM)
T1 construct: Human MER (residues 528-999; CarnaBio, 1 ng/ well); purchased CarnaBio
T1 sequence (Q12866 528-999): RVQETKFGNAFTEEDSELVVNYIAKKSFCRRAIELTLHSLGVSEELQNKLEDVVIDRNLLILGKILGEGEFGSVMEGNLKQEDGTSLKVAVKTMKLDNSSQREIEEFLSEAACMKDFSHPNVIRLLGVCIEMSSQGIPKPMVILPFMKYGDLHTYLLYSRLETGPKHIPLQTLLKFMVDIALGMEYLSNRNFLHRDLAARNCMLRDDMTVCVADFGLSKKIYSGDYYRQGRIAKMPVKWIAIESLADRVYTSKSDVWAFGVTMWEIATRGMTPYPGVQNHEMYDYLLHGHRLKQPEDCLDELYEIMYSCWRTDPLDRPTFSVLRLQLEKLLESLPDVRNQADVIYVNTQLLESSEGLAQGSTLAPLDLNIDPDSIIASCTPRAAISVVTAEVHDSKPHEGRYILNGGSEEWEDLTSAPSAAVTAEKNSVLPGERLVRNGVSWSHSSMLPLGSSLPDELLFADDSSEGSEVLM
Description: (§1) Kinase activity and compound inhibition were investigated using the HTRF® KinEase assay (Cisbio Cat #62TKOPEB) per manufacturer's instructions. In short, compounds were delivered in 300 nL volumes at 10 different concentrations in DMSO (3% final) to empty 384-well assay plates (Corning cat #3824). A mixture of enzyme, 1 μM biotynlated peptide substrate, and buffer in 10 μL volume was added. The assay was started upon the addition of ATP (at Km). The 10 μL reaction was incubated at room temperature. The reaction was stopped upon the addition of detection buffer containing streptavidin-XL665 (5 μL) and TK antibody-Eu3+ (5 μL). After a 60 min incubation at room temperature, the fluorescence at 665 nm and 620 nm was read on an Envision microplate reader (Perkin Elmer). Kinase activity normalized to DMSO (100% activity) and reference compound at 1 μM and (0% activity) was calculated using the fluorescence ratio […]. IC50 values were calculated by nonlinear regression analysis using a 4-parameter logistic curve fit in ActivityBase XE (IDBS).
Human MER (residues 528-999; CarnaBio, 1 ng/ well) was incubated with enzymatic buffer (Cisbio) supplemented with 5 mM MgCl2 and 1 mM DTT. The mixture was added to the pre-plated compounds. The reaction was initiated upon addition of ATP at Km (40 μM). The reaction was incubated at room temperature for 60 min and stopped upon the addition of SA-XL665 and TK-antibody both diluted in EDTA-containing kinase detection buffer (Cisbio). The kinase activity was calculated as stated above and the IC50 values were reported.

Met = Met (Homo sapiens, UniProt P08581); assay: Human MET kinase assay (HTRF KinEase); set-up: Human MET (residues 956-1390; CarnaBio, 0.1 ng/ well); purchased CarnaBio; details: Table 2 Biological Activities, ATP at Km (3.0 μM), read-out: c-Met IC50
Description: as §1
(§2) Human MET (residues 956-1390; CarnaBio, 0.1 ng/ well) was incubated with enzymatic buffer (Cisbio) supplemented with 5 mM MgCl2, 1 mM DTT and 1 mM MnCl2. The mixture was added to the pre-plated compounds. The reaction was initiated upon addition of ATP at Km (3.0 μM). The reaction was incubated at room temperature for 40 min and stopped upon the addition of SA-XL665 and TK-antibody both diluted in EDTA-containing kinase detection buffer (Cisbio). The kinase activity was calculated as stated above and the IC50 values were reported.

KDR = KDR (Homo sapiens, UniProt P35968); assay: Human KDR kinase assay (HTRF KinEase); set-up: Human KDR (residues 790-1356; CarnaBio, 0.1 ng/ well); purchased CarnaBio; details: Table 2 Biological Activities, ATP at Km (4.0 μM)
Description: as §1
as §2, with “KDR” for “MET”, “790-1356;” for “956-1390;”, “MnCl2,” for “DTT”, “DTT.” for “MnCl2.”, “(4.0” for “(3.0”

Met, sequence (P08581 956-1390): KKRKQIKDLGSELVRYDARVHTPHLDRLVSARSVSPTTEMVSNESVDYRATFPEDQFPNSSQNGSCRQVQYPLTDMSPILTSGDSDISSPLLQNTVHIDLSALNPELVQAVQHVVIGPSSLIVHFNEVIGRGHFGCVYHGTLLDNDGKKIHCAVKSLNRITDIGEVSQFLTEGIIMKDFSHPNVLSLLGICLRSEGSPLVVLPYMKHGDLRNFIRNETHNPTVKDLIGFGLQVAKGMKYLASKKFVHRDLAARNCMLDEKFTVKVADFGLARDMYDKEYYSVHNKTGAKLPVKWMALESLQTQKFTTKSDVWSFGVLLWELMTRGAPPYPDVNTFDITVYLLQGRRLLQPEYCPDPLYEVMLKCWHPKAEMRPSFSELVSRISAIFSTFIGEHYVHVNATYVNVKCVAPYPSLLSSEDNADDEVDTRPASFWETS
KDR, sequence (P35968 790-1356): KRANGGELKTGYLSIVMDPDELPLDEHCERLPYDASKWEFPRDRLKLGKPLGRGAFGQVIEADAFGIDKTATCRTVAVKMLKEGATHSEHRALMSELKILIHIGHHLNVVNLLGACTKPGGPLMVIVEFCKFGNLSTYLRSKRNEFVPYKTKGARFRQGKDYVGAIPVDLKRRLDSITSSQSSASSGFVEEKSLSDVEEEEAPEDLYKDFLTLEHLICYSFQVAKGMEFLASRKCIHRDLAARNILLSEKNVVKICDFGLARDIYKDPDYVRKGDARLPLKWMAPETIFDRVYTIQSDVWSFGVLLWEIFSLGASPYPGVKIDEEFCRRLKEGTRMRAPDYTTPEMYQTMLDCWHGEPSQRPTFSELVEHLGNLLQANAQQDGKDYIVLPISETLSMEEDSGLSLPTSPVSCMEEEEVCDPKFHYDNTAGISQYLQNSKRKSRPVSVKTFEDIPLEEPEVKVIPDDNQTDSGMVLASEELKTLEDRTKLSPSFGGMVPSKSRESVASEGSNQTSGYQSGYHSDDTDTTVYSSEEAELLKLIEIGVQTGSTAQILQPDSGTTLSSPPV

Row | Compound | IC50 (Human MER) [µM] | IC50 (Met) [µM] | IC50 (KDR) [µM]
1 | COc1cc2nccc(Oc3ccc(NC(=O)c4ccc(C)n(-c5ncc(F)cc5C)c4=O)cc3F)c2nc1OC [Compound 51, N-[4-[(6,7-Dimethoxy-1,5-naphthyridin-4-yl)oxy]-3-fluorophenyl]-1-(5-fluoro-3-methylpyridin-2-yl)-6-methyl-2-oxopyridine-3-carboxamide] | ≤ 0.1 | ≤ 0.1 | 0.1 to 0.3
2 | COc1cnc2c(Oc3ccc(NC(=O)c4c(C)ncc(-c5ccccn5)c4O)cc3F)ccnc2c1 [Compound 70, N-[3-Fluoro-4-[(7-methoxy-1,5-naphthyridin-4-yl)oxy]phenyl]-4-hydroxy-2-methyl-5-pyridin-2-ylpyridine-3-carboxamide] | ≤ 0.1 | ≤ 0.1 | ≤ 0.1
3 | COc1cc2nccc(Oc3ccc(NC(=O)c4cnc(C)c(-c5ccc(F)cn5)c4O)cc3F)c2nc1OC [Compound 85, N-[4-[(6,7-Dimethoxy-1,5-naphthyridin-4-yl)oxy]-3-fluorophenyl]-5-(5-fluoropyridin-2-yl)-4-hydroxy-6-methylpyridine-3-carboxamide] | ≤ 0.1 | ≤ 0.1 | ≤ 0.1
4 | COc1cc2nccc(Oc3ccc(NC(=O)c4c(C)ncc(-c5ccccn5)c4O)cc3F)c2nc1OC [Compound 69, N-[4-[(6,7-Dimethoxy-1,5-naphthyridin-4-yl)oxy]-3-fluorophenyl]-4-hydroxy-2-methyl-5-pyridin-2-ylpyridine-3-carboxamide] | ≤ 0.1 | ≤ 0.1 | ≤ 0.1
5 | COc1cc2nccc(Oc3ccc(NC(=O)c4c(C)n(C)cc(-c5ccc(F)cn5)c4=O)cc3)c2nc1OC [Compound 72, N-[4-[(6,7-Dimethoxy-1,5-naphthyridin-4-yl)oxy]phenyl]-5-(5-fluoropyridin-2-yl)-1,2-dimethyl-4-oxopyridine-3-carboxamide] | 0.1 to 0.3 | 0.3 to 1 | 0.3 to 1

The remaining lines, values ahead:

Row | IC50 (Human MER) [µM] | IC50 (Met) [µM] | IC50 (KDR) [µM] | Compound
6 | 0.1 to 0.3 | 0.3 to 1 | 0.3 to 1 | COc1cnc2c(Oc3ccc(NC(=O)c4c(C)n(C)cc(-c5ccc(F)cn5)c4=O)cc3F)ccnc2c1 [Compound 73, N-[3-Fluoro-4-[(7-methoxy-1,5-naphthyridin-4-yl)oxy]phenyl]-5-(5-fluoropyridin-2-yl)-1,2-dimethyl-4-oxopyridine-3-carboxamide]
7 | ≤ 0.1 | ≤ 0.1 | 0.1 to 0.3 | COc1cnc2c(Oc3ccc(NC(=O)c4ccc(C)n(-c5ccc(F)cn5)c4=O)cc3F)ccnc2c1 [Compound 45, N-[3-Fluoro-4-[(7-methoxy-1,5-naphthyridin-4-yl)oxy]phenyl]-1-(5-fluoropyridin-2-yl)-6-methyl-2-oxopyridine-3-carboxamide]
8 | ≤ 0.1 | ≤ 0.1 | 0.3 to 1 | COc1cnc2c(Oc3ccc(NC(=O)c4ccc(C)n(-c5ncc(F)cc5C)c4=O)cc3F)ccnc2c1 [Compound 52, N-[3-Fluoro-4-[(7-methoxy-1,5-naphthyridin-4-yl)oxy]phenyl]-1-(5-fluoro-3-methylpyridin-2-yl)-6-methyl-2-oxopyridine-3-carboxamide]
9 | ≤ 0.1 | 0.1 to 0.3 | 0.3 to 1 | Cc1ccc(C(=O)Nc2ccc(Oc3ccnc4cnc(Cl)cc34)c(F)c2)c(=O)n1-c1ccc(F)cn1 [Compound 54A, N-[4-[(6-Chloro-1,7-naphthyridin-4-yl)oxy]-3-fluorophenyl]-1-(5-fluoropyridin-2-yl)-6-methyl-2-oxopyridine-3-carboxamide]
10 | ≤ 0.1 | ≤ 0.1 | ≤ 0.1 | COCCOc1cc2nccc(Oc3ccc(NC(=O)c4ccc(C)n(-c5ccc(F)cn5)c4=O)cc3F)c2nc1OC [Compound 50, N-[3-Fluoro-4-[[6-methoxy-7-(2-methoxyethoxy)-1,5-naphthyridin-4-yl]oxy]phenyl]-1-(5-fluoropyridin-2-yl)-6-methyl-2-oxopyridine-3-carboxamide]
